Measurements as given in US11026944B2, “Compositions and methods for treating insomnia” (Eisai R&D Management Co., Ltd., priority 2014, dated 2021).
Read-outs that look alike come from different tables or passages of the source.

Experiments:
[1] = Multiple ascending dose study (002 Study): plasma PK; assay type: in vivo, human; settings: for concentration at 8 h / concentration at 10 h / AUC(0-t) / Cmax / Tmax / half-life: human, oral; for concentration at 8 h: plasma at 8 h, read-out: C8 Mean(SD); for concentration at 10 h: plasma at 10 h, read-out: C10 Mean(SD); for AUC(0-t) / Cmax / Tmax / half-life: plasma; for AUC(0-t): read-out: AUC(0-24) Mean(SD); for Cmax: read-out: Cmax Mean(SD); for Tmax: read-out: tmax Median
Method: A total of 48 healthy adult subjects (18 to 55 years) were to be enrolled into 1 of 6 cohorts sequentially in a gradual dose escalation manner, and randomized to receive either compound A or compound A-matched placebo in the evening 30 minutes before habitual bedtime, and after 3 hours fasting, for 14 days. Each cohort was to comprise 6 compound A-treated subjects and 2 placebo-treated subjects. Blood samples were collected for PK analysis at prespecified timepoints, and PD assessments were conducted.
Blood samples for determination of plasma concentrations of compound A were collected at Day 1 predose and postdose 0.5 (30 minutes), 1, 1.5, 2, 3, 4, 5, 6, 8, 10, and 12 hours; Days 2 to 13: predose; Day 14: predose and postdose 0.5 (30 minutes), 1, 1.5, 2, 3, 4, 5, 6, 8, 10, and 12 hours; Day 15: 24 hours after Day 14 dose; Days 16 to 19: 36, 60, 84, and 108 hours after Day 14 dose; Day 21, 24, 26, 28: As close as possible to 156, 228, 276, and 324 hours after Day 14 dose. Plasma concentrations of compound A were measured in the same manner as described in Example 1 and the above noncompartmental plasma PK parameters were calculated for compound A.
Compound A capsules and compound A-matched placebo capsules were available in strengths of 2.5 mg, 10 mg, and 50 mg. All study drugs were administered as daily doses using one or more compound A-capsules or compound A-matched placebo capsules due to the test dose.

[2] = test system: healthy adult subjects; assay: 002 Study: next-day residual sleepiness (KSS, PVT, DSST) and Waketime Questionnaire; assay type: in vivo, human
Method: All subjects were administered PD assessments, including the Karolinska Sleepiness Scale (KSS), Digit Symbol Substitution Test (DSST), and Psychomotor Vigilance Test (PVT) in order to assess acute sleepiness in the interval between dosing and bedtime, as well as next-day residual sleepiness and the level of alertness and ability to concentrate. In addition, a Waketime Questionnaire was administered daily in order to assess quality of sleep on the previous night.
PD effects were assessed by evaluating postdose and next-day functioning on the KSS, DSST, and the PVT, and by self-report of sleep quality on the Waketime Questionnaire. The KSS, DSST, and PVT were performed starting Day-1 at 15 minutes before habitual bedtime; on Days 1 to 15 within 15 minutes after habitual waketime, and at 1, 2, 4, 8, and 12 hours after habitual waketime, and on Days 1 to 14 at 15 minutes predose and 15 minutes postdose. 24-hour Holter recordings were started 30 minutes before bedtime on Day-2 and just prior to dosing on Day 14. Extractions from these recordings were used to conduct ECG analyses, including the HPQT analysis. Waketime Questionnaires were administered on Day 1 to Day 19.
The KSS, PVT, and DSST were administered on each treatment day in the evening predose and postdose to assess the acute effect of compound A on sleepiness. For these timepoints, the daily 15 minutes predose values on the KSS, DSST, and PVT served as a baseline for that day's 15 minutes postdose value (daily baseline). The KSS, PVT, and DSST were also administered throughout the daytime hours subsequent to each dosing evening to assess the effect of compound A on next-day residual sleepiness. For these timepoints, the assessments taken at Day 1, 15 minutes and 1, 2, 4, 8, and 12 hours after habitual waketime served as the baseline for the assessments taken at the corresponding times after habitual waketime on Day 2 to Day 15 (time-matched baseline). Waketime Questionnaires were administered on Day 1 through Day 19 in the morning hours. The predose value on Day 1 was used as the baseline. The difference between placebo and each dose of compound A in change from baseline at each timepoint was calculated along with 95% confidence intervals (CIs). Potential dose-response and time trend were explored as data allowed.

[3] = 2.5 mg, Day 1, 2.5 mg once daily in the evening
[4] = 2.5 mg, Day 14, 2.5 mg once daily for 14 days
[5] = 5 mg, Day 1, 5 mg once daily in the evening
[6] = 5 mg, Day 14, 5 mg once daily for 14 days
[7] = 10 mg, Day 1, 10 mg once daily in the evening
[8] = 10 mg, Day 14, 10 mg once daily for 14 days
[9] = 25 mg, Day 1, 25 mg once daily in the evening
[10] = 25 mg, Day 14, 25 mg once daily for 14 days
[11] = 50 mg, Day 1, 50 mg once daily in the evening
[12] = 50 mg, Day 14, 50 mg once daily for 14 days
[13] = 75 mg, Day 1, 75 mg once daily in the evening
[14] = 75 mg, Day 14, 75 mg once daily for 14 days

**Q.** For Cc1ncc(OC[C@@]2(c3cccc(F)c3)C[C@H]2C(=O)Nc2ccc(F)cn2)c(C)n1 [Compound A, (1R,2 S)-2-(((2,4-dimethylpyrimidin-5-yl)oxy)methyl)-2-(3-fluorophenyl)-N-(5-fluoropyridin-2-yl) cyclopropanecarboxamide], which Accumulation ([1]; 14 days once daily) is on record?
**A.** lower than predicted by the terminal half-life

**Q.** What about the “Cmax Mean(SD)” value ([1]; Day 1, 25 mg once daily in the evening) of the same molecule?
**A.** 92.0(24.0) ng/mL

**Q.** What about the “t1/2 Mean(SD)” value ([1]; Day 14, 50 mg once daily for 14 days) of the same molecule?
**A.** 55.5(21.3) h

**Q.** And the “AUC(0-24 h) dose proportionality” value ([1]; dose-normalized data, Day 1)?
**A.** increased slightly less than in proportion to dose

**Q.** And the Cmax dose proportionality ([1]; dose-normalized data, Day 1 and Day 14)?
**A.** increased slightly less than in proportion to dose

**Q.** And the “AUC(0-24 h) dose proportionality” value ([1]; dose-normalized data, Day 14)?
**A.** increased in approximate proportion to dose

**Q.** And the concentration at 8 h ([1]; Day 1, 2.5 mg)?
**A.** 2.33 ng/mL

**Q.** And the concentration at 8 h ([1]; Day 1, 5 mg)?
**A.** 4.4 ng/mL

**Q.** What about the concentration at 8 h ([1]; Day 1, 10 mg) of the same molecule?
**A.** 8.51 ng/mL

**Q.** What about the concentration at 8 h ([1]; Day 1, 25 mg) of the same molecule?
**A.** 24.1 ng/mL

**Q.** And the concentration at 8 h ([1]; Day 1, 50 mg)?
**A.** 38.1 ng/mL

**Q.** What about the concentration at 8 h ([1]; Day 1, 75 mg) of the same molecule?
**A.** 54.5 ng/mL

**Q.** And the concentration at 10 h ([1]; Day 1, 2.5 mg)?
**A.** 2.04 ng/mL

**Q.** What about the concentration at 10 h ([1]; Day 1, 5 mg) of the same molecule?
**A.** 3.63 ng/mL

**Q.** What about the concentration at 10 h ([1]; Day 1, 10 mg) of the same molecule?
**A.** 7.72 ng/mL

**Q.** And the concentration at 10 h ([1]; Day 1, 25 mg)?
**A.** 19.8 ng/mL

**Q.** What about the concentration at 10 h ([1]; Day 1, 50 mg) of the same molecule?
**A.** 32.9 ng/mL

**Q.** And the concentration at 10 h ([1]; Day 1, 75 mg)?
**A.** 44.2 ng/mL

**Q.** And the AUC(0-t) [1, 3]?
**A.** 59.4 ng·h/mL

**Q.** And the Cmax [1, 3]?
**A.** 10.1 ng/mL

**Q.** And the Tmax [1, 3]?
**A.** 2.02 h

**Q.** And the AUC(0-t) [1, 4]?
**A.** ~120 ng·h/mL

**Q.** And the Cmax [1, 4]?
**A.** ~15 ng/mL

**Q.** What about the half-life ([1]; 2.5 mg, Day 14, 2.5 mg once daily for 14 days, read-out: t1/2 Mean(SD) (converted)) of the same molecule?
**A.** ~44 h

**Q.** And the Tmax [1, 4]?
**A.** ~2 h

**Q.** And the AUC(0-t) [1, 5]?
**A.** 108 ng·h/mL

**Q.** What about the Cmax [1, 5] of the same molecule?
**A.** 19.4 ng/mL

**Q.** What about the Tmax [1, 5] of the same molecule?
**A.** 1.25 h

**Q.** What about the AUC(0-t) [1, 6] of the same molecule?
**A.** ~190 ng·h/mL

**Q.** And the Cmax [1, 6]?
**A.** ~24 ng/mL

**Q.** What about the half-life ([1]; 5 mg, Day 14, 5 mg once daily for 14 days, read-out: t1/2 Mean(SD) (converted)) of the same molecule?
**A.** ~46 h

**Q.** What about the Tmax [1, 6] of the same molecule?
**A.** ~1 h

**Q.** What about the AUC(0-t) [1, 7] of the same molecule?
**A.** 187 ng·h/mL

**Q.** And the Cmax [1, 7]?
**A.** 30.4 ng/mL

**Q.** What about the Tmax [1, 7] of the same molecule?
**A.** 3.25 h

**Q.** What about the AUC(0-t) [1, 8] of the same molecule?
**A.** ~360 ng·h/mL

**Q.** And the Cmax [1, 8]?
**A.** ~47 ng/mL

**Q.** What about the half-life ([1]; 10 mg, Day 14, 10 mg once daily for 14 days, read-out: t1/2 Mean(SD) (converted)) of the same molecule?
**A.** ~55 h

**Q.** And the Tmax [1, 8]?
**A.** ~2 h

**Q.** And the half-life ([1]; 10 mg, doses of 10 mg and higher, following Day 14 dosing, read-out: mean terminal half-life (converted))?
**A.** ~55 h

**Q.** And the AUC(0-t) [1, 9]?
**A.** 549 ng·h/mL

**Q.** And the Tmax [1, 9]?
**A.** 1.5 h

**Q.** What about the AUC(0-t) [1, 10] of the same molecule?
**A.** 1100 ng·h/mL

**Q.** What about the Cmax [1, 10] of the same molecule?
**A.** 107 ng/mL

**Q.** What about the half-life ([1]; 25 mg, Day 14, 25 mg once daily for 14 days, read-out: t1/2 Mean(SD) (converted)) of the same molecule?
**A.** 50.6 h

**Q.** What about the Tmax [1, 10] of the same molecule?
**A.** 3 h

**Q.** What about the half-life ([1]; 50 mg, 50-mg dose, read-out: effective half-life based on accumulation (converted)) of the same molecule?
**A.** 28 h

**Q.** And the AUC(0-t) [1, 11]?
**A.** 931 ng·h/mL

**Q.** What about the Cmax [1, 11] of the same molecule?
**A.** 199 ng/mL

**Q.** What about the Tmax [1, 11] of the same molecule?
**A.** 2 h

**Q.** And the AUC(0-t) [1, 12]?
**A.** 2300 ng·h/mL

**Q.** And the Cmax [1, 12]?
**A.** 220 ng/mL

**Q.** And the Tmax [1, 12]?
**A.** 2.02 h

**Q.** And the half-life ([1]; 75 mg, 75-mg dose, read-out: effective half-life based on accumulation (converted))?
**A.** 39.3 h

**Q.** And the AUC(0-t) [1, 13]?
**A.** 1260 ng·h/mL

**Q.** What about the Cmax [1, 13] of the same molecule?
**A.** 223 ng/mL

**Q.** And the Tmax [1, 13]?
**A.** 3 h

**Q.** And the AUC(0-t) [1, 14]?
**A.** 3790 ng·h/mL

**Q.** And the Cmax [1, 14]?
**A.** 420 ng/mL

**Q.** What about the half-life ([1]; 75 mg, Day 14, 75 mg once daily for 14 days, read-out: t1/2 Mean(SD) (converted)) of the same molecule?
**A.** 56.2 h

**Q.** And the Tmax [1, 14]?
**A.** 2 h

**Q.** What about the half-life ([1]; 2.5- and 5-mg doses, average, read-out: terminal half-life (converted)) of the same molecule?
**A.** ~45 h

**Q.** And the half-life ([1]; doses ranging from 2.5 to 25 mg, read-out: effective half-life based on accumulation (converted))?
**A.** 16.9 to 24.7 h

**Q.** What about the “next day residual sleepiness as measured by KSS, PVT, DSST” value ([2]; 2.5-75 mg once daily for 14 days) of the same molecule?
**A.** dose-related increases in both the magnitude and duration

**Q.** And the “next-day residual sleepiness vs placebo (KSS, PVT, DSST)” value ([2]; 2.5-mg and 5-mg dose groups, any time, any treatment day)?
**A.** no meaningful difference from placebo

**Q.** And the “next-day residual sleepiness vs placebo (KSS)” value ([2]; 10-mg dose group, within 2 hours after waketime, Day 2 through Day 4)?
**A.** Slight differences from placebo

**Q.** What about the “increase in next-day residual sleepiness” value ([2]; 25-mg dose group, within 2 hours after waketime) of the same molecule?
**A.** more consistent and slightly larger than in the 10-mg dose group

**Q.** What about the “next-day residual sleepiness vs placebo, all assessments” value ([2]; 50-mg and 75-mg dose groups) of the same molecule?
**A.** consistent and relatively large differences from placebo

**Q.** What about the “Waketime Questionnaire: changes in nighttime sleep” value ([2]; any dose group) of the same molecule?
**A.** None of the items on the Waketime Questionnaire indicated a systematic pattern of changes in nighttime sleep

**Q.** What about the “measures of sleepiness vs placebo” value ([2]; by 12 hours after waketime, any dose group, any day) of the same molecule?
**A.** no differences from placebo
